Values quoted from earlier work as cited in patent US6339092B1, “Metalloprotease inhibitors” (Adir et Compagnie, priority 1999, dated 2002).

System: ovarian cancers
Settings: Becket el al., DDT 1996; cited from earlier work

SMILES: CNC(=O)[C@H](Cc1ccccc1)NC(=O)[C@H](CC(C)C)[C@H](CSc1cccs1)C(=O)NO [BB94]
- anti-tumour activity in clinical use: active against ovarian cancers
